Data reported in US20230086119A1, “ANTICANCER AGENT CONTAINING RHOA PEPTIDE INHIBITOR AS AN ACTIVE INGREDIENT” (EL MED, priority 2020, published 2023).
Where a SMILES comes first, the peptide text is derived from it. [ ]: non-standard residue; d: D form. The star is where a group is joined. ξ: configuration not given here. Biotinyl(4ξ) = O=C1N[C@H]2CSC(CCCCC(=O)*)[C@H]2N1; pY = N[C@@H](Cc1ccc(OP(=O)(O)O)cc1)C(=O)O; ξIle = CC[C@H](C)C(N)C(=O)O

Experiments:
HEK293T cells [1] = test: Cell migration by wound healing method in response to Wnt3A; format: cell-based; details: 1 μM, Wnt3A 30 ng/ml, 48 hours, FIG. 42
HepG2 cells [2] = test: MTT proliferation with stimulants (FIG. 37); format: cell-based; details: pre-incubated one hour, stimulant 48 hours
Description: (§1) The MTT assay was performed to measure the proliferation of various cancer cell lines, such as HEK293T, LN18 glioma, HepG2 liver cancer, AGS gastric cancer, and A549 lung cancer cells.

LN18 cells = test: MTT proliferation with stimulants (FIG. 37); format: cell-based; details: pre-incubated one hour, stimulant 48 hours
Description: as §1

HEK293T cells [3] = test: MTT proliferation with stimulants (FIG. 37); format: cell-based; details: pre-incubated one hour, stimulant 48 hours
Description: as §1

A549 cells = test: MTT proliferation with stimulants (FIG. 37); format: cell-based; details: pre-incubated one hour, stimulant 48 hours
Description: as §1

[4] = target: T1, p-Tyr42 RhoA and β-catenin (Homo sapiens, UniProt P35222); test: Co-immunoprecipitation of p-Tyr42 RhoA with β-catenin after Wnt3A; format: cell-based; details: cells pretreated with inhibitor, then Wnt3A; FIGS. 20 and 21
T1 construct: endogenous in cells
T1 sequence (P35222 2-781 limits assumed): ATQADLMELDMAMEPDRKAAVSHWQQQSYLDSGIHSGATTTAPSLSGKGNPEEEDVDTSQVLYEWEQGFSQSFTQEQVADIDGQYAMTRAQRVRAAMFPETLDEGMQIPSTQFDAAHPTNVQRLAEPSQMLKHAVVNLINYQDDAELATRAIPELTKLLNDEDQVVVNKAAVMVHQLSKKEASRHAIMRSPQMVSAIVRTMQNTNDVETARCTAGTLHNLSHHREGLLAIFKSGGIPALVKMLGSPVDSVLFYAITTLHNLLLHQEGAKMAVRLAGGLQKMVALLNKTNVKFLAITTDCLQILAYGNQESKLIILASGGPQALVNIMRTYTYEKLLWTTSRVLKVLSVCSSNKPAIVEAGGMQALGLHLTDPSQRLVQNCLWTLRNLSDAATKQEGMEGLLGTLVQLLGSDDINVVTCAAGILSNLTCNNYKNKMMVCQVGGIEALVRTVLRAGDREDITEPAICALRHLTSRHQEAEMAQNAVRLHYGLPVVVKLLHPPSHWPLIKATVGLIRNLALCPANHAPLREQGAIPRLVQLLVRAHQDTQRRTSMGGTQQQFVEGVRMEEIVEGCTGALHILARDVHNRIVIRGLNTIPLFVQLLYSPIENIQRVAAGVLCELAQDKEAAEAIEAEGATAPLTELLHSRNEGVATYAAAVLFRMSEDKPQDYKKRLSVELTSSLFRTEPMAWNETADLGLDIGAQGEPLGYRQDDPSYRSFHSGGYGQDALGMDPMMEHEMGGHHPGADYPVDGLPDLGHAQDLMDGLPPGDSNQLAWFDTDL
Description: (§2) HEK293T cells were collected and washed with ice-cold PBS, and dissolved with RIPA buffer (50 mM Tris-HCl (pH7.4), 150 mM NaCl, 1% Nonidet P-40, 0.25% NaN3, 1 mM EDTA, 1 mM PMSF, 1 μg/mL aprotinin, 1 μg/mL leupeptin, 1 μg/mL pepstatin, 1 mM sodium orthovanadate, and 1 mM NaF). The cell lysate was centrifuged at 13,475×g for 20 minutes and the supernatant was analyzed for protein concentration using the BCA Protein Assay Kit (Pierce; Rockford, USA). Proteins of the cell lysate were run on SDS-PAGE and transferred to a PVDF membrane (Millipore; Billerica, USA). Anti-RhoA ( 1/500), anti-actin (Santa Cruz; Dallas, Calif.), anti-GSK-3β( 1/500), anti-phospho (Ser9)-GSK-3β( 1/500) (both Cell Signaling, Beverly, USA), anti-O-catenin ( 1/1000) (Invitrogen, Carlsbad, USA), anti-active β-catenin ( 1/500) (Millipore, Billerica, USA), and anti-Tau ( 1/500) (Biosource; Camarillo, Calif.) antibodies were incubated with PVDF membranes at room temperature for 2 hours, and then each was washed 3 times for 5 minutes. Thereafter, the membrane was incubated for 1 hour with anti-rat IgG antibody or anti-mouse IgG antibody conjugated with horse radish peroxidase (HRP) (both provided by ENZO Life Science; Farmingdale, USA, 1/1000 dilution) and each was washed later three times for 10 minutes. The membrane was incubated with an enhanced chemiluminescence (ECL) reagent (Amersham; Uppsala, Sweden) and then exposed to an X-ray film. The strength of the band was quantified with the ImageJ program of the U.S. National Institutes of Health (Bethesda, USA).
1×10^7 Cells were washed with 1×PBS, and the cell lysate was prepared using cell lysis buffer (20 mM Tris pH 7.4, 120 mM NaCl, and 1% Nonidet P-40) containing 10 μg/mL each of leupeptin and aprotinin and each of NaF, Na3VO4, PMSF and 5 mM MgCl2. The lysate was used for immunoprecipitation by specific antibodies. […]

HEK293T cells [5] = test: Wnt3A-induced cell proliferation, fluorescence microscopy; format: cell-based; details: Tat-C3 1 μg/mL, Y27632 10 μM pretreated one hour; Wnt3A 30 ng/mL two days; FIG. 6
Description: (§3) All cells tested were cultured in Dulbecco's Modified Eagle Medium (DMEM; Weljin, Gyeongsan) containing 5% fetal bovine serum (FBS; GIBCO, Carlsbad, USA) and 1% penicillin-streptomycin (complete medium) under 5% CO2 at 37° C.

cyclin D1 and c-Myc = test: Wnt3A-induced cyclin D1 and c-Myc expression, Western blotting; format: cell-based; details: HEK293T; pretreated one hour; Wnt3A 30 ng/mL two hours; FIG. 9
Description: as §2, with “Thereafter, the membrane was incubated for 1 hour with anti-rat IgG antibody or anti-mouse IgG antibody conjugated with horse radish peroxidase (HRP) (both provided by ENZO Life Science; Farmingdale, USA, 1/1000 dilution) and each was washed later three times for 10 minutes. The membrane was incubated with an enhanced chemiluminescence (ECL) reagent (Amersham; Uppsala, Sweden) and then exposed to an X-ray film.” left out

[6] = tested on: macrophage cell line RAW264.7; test: Wnt3A-mediated cell proliferation, fluorescence microscopy; format: cell-based, mouse; details: Tat-C3 1 μg/mL, Y27632 10 μM pretreated one hour; Wnt3A 30 ng/mL two days; FIG. 7
Description: as §3

HepG2 cells [7] = test: MTT proliferation, substituted amino acids of EM3 (FIGS. 39, 40); format: cell-based; details: DMEM 2.5% FBS 48 hours, FIG. 40 legend
Description: FIGS. 39 and 40 show the effect of the substituted amino acids of EM3 on cell proliferation, and the present inventors have designed various peptide inhibitors replaced with other amino acids. The cells were cultured in DMEM containing 2.5% FBS for 48 hours and cell proliferation was measured by MTT assay.

RAW264.7 cells = test: MTT proliferation, FBS-stimulated (FIG. 38); format: cell-based, mouse; details: pretreated one hour, 2% FBS 48 hours
Description: (§4) The MTT assay was performed to measure the proliferation of various cancer cell lines, such as HEK293T, LN18 glioma, HepG2 liver cancer, HT29 colon cancer, 4T1 mouse breast cancer, and RAW264.7 mouse macrophages.

4T1 = test: MTT proliferation, FBS-stimulated (FIG. 38); format: cell-based, mouse; details: pretreated one hour, 2% FBS 48 hours
Description: as §4

4T1 cells = test: Xenotransplantation experiment with 4T1 cells in BALB/c mice; format: in vivo; details: EM3 2.5 mM, 10 μL/mouse daily
Description: Animal care and experiments were performed by the approval of the Institutional Animal Care and Use Committee (HIRB-2016-52) of Hallym University. Male BALB/c mice (7 weeks old) were injected with 4T1 cells (5×10^5 cells in […] of 1×PBS), and randomly assigned to an EM3 treatment group (7 mice) or the control group (6 mice). The normal group also included two non-tumor mice. Cells were injected subcutaneously and EM3 (2.5 mM, 10 μL/mouse) and 1× PBS (10 μL/mouse) were applied daily. Tumor volume was measured daily and tumor weight and spleen size were measured after sacrificing the mice.

HEK293T = test: MTT proliferation, FBS-stimulated (FIG. 38); format: cell-based; details: pretreated one hour, 2% FBS 48 hours
Description: as §4

HepG2 = test: MTT proliferation, FBS-stimulated (FIG. 38); format: cell-based; details: pretreated one hour, 2% FBS 48 hours
Description: as §4

LN18 = test: MTT proliferation, FBS-stimulated (FIG. 38); format: cell-based; details: pretreated one hour, 2% FBS 48 hours
Description: as §4

HT29 = test: MTT proliferation, FBS-stimulated (FIG. 38); format: cell-based; details: pretreated one hour, 2% FBS 48 hours
Description: as §4

CC[C@H](C)C(NC(=O)[C@H](CC(=O)O)NC(=O)[C@H](C)NC(=O)[C@@H](NC(=O)[C@H](Cc1ccc(O)cc1)NC(=O)[C@H](CC(N)=O)NC(=O)[C@H](CCC(=O)O)NC(=O)[C@H](Cc1ccccc1)NC(=O)[C@@H](NC(=O)[C@@H](NC(=O)CCCCC1SC[C@@H]2NC(=O)N[C@H]12)[C@@H](C)O)C(C)C)C(C)C)C(=O)N[C@@H](CCC(=O)O)C(=O)O (stereo partly shown) [EM4] ({Biotinyl(4ξ)}-TVFENYVAD[ξIle]E-OH)
migration of HEK293 cells in response to Wnt3A (HEK293T cells [1]): reducing the migration

CC(C)[C@H](NC(=O)[C@H](Cc1ccc(O)cc1)NC(=O)[C@@H](N)CC(N)=O)C(=O)N[C@@H](C)C(N)=O [PR2] (H-NYVA-NH2)
proliferation of HepG2 cells by insulin (HepG2 cells [2]): significantly inhibited | proliferation of LN18 cells by EGF (LN18 cells): significantly inhibited | proliferation of HEK293T cells by LPS (HEK293T cells [3]): significantly inhibited | proliferation of HEK293T cells by Wnt3A (HEK293T cells [3]): significantly inhibited | proliferation of HEk293T cells by H2O2 (HEK293T cells [3]): significantly inhibited | proliferation of A549 cells by PMA (A549 cells): significantly inhibited | co-immunoprecipitation of p-Tyr42 RhoA and β-catenin [4]: inhibited

CC(C)[C@H](NC(=O)[C@H](Cc1ccc(OP(=O)(O)O)cc1)NC(=O)[C@@H](N)CC(N)=O)C(=O)N[C@@H](C)C(N)=O [PR3] (H-N[pY]VA-NH2)
proliferation of HepG2 cells by insulin (HepG2 cells [2]): significantly inhibited | proliferation of LN18 cells by EGF (LN18 cells): significantly inhibited | proliferation of HEK293T cells by LPS (HEK293T cells [3]): significantly inhibited | proliferation of HEK293T cells by Wnt3A (HEK293T cells [3]): significantly inhibited | proliferation of HEk293T cells by H2O2 (HEK293T cells [3]): significantly inhibited | proliferation of A549 cells by PMA (A549 cells): significantly inhibited | migration of HEK293 cells in response to Wnt3A (HEK293T cells [1]): reducing the migration | co-immunoprecipitation of p-Tyr42 RhoA and β-catenin [4]: inhibited

C[C@@H](N)[C@H]1CC[C@H](C(=O)Nc2ccncc2)CC1 [Y27632]
proliferation of HEK293T cells by Wnt3A (HEK293T cells [5]): abolished | Wnt3A-increased expression of cyclin D1 and c-Myc (cyclin D1 and c-Myc): abolished this increased expression | Wnt3A-mediated proliferation in RAW264.7 [6]: inhibited

AYVA [HL1]
inhibitory effect on HepG2 cell proliferation, compared with EM3 (HepG2 cells [7]): less effective than EM3

NFVA [HL7]
inhibitory effect on HepG2 cell proliferation, compared with EM3 (HepG2 cells [7]): less effective than EM3

NYLA [HL5]
inhibitory effect on HepG2 cell proliferation, compared with EM3 (HepG2 cells [7]): less effective than EM3

NYVA-NH2 [EM3]
proliferation of FBS-stimulated RAW264.7 cells (RAW264.7 cells): significantly inhibited | proliferation of FBS-stimulated 4T1 cells (4T1): significantly inhibited | migration of HEK293 cells in response to Wnt3A (HEK293T cells [1]): reducing the migration | tumor volume (4T1 cells; 4T1 cells subcutaneous, FIG. 43A): dramatically decreased | tumor weight (4T1 cells; 4T1 cells subcutaneous, after sacrifice, FIG. 43B): dramatically decreased | spleen size (4T1 cells; 4T1 tumor, after sacrifice, FIG. 43C): same size compared to control mice | proliferation of FBS-stimulated HEK293T cells (HEK293T): significantly inhibited | proliferation of FBS-stimulated HepG2 cells (HepG2): significantly inhibited | proliferation of FBS-stimulated LN18 cells (LN18): significantly inhibited | proliferation of FBS-stimulated HT29 cells (HT29): significantly inhibited | co-immunoprecipitation of p-Tyr42 RhoA and β-catenin [4]: inhibited

NYVS [HL4]
inhibitory effect on HepG2 cell proliferation, compared with EM3 (HepG2 cells [7]): less effective than EM3
